From patent publication US9974306B2, “Herbicidal combinations for tolerant soybean cultures” (priority 2012, dated 2018)

Assays:
GLXMA GM_W336 = assay: Post-emergence greenhouse treatment, visual rating of effect on W336 transgenic (HPPD inhibitor tolerant) soybean; assay type: in vivo; settings: for Effect (%): GLXMA GM_W336
Experimental: (§1) The soybeans were grown under the same conditions as described above. The following three varieties were used in the tests:
(§2) 1) W336—Transgenic soybean plants comprising a chimeric gene encoding a W336 mutant HPPD protein of Pseudomonas fluorescens (U.S. Pat. No. 6,245,968) fused to the optimized transit peptide for chloroplast targeting (U.S. Pat. No. 5,510,471), and under the control of the 35S CaMV promoter (Odell et al., 1985, Nature 313: 810-812) fused to the 5′ enhancer sequence of TEV (Carrington and Freed, 1990, J. Virol. 64: 1590-1597), with as 3′ transcript termination and polyadenylation region that of the CaMV 35S gene (Sanfacon et al., 1991, Genes & Development 5:141-149), abbreviated as “W336 soybean plants” herein. 2) MERLIN—conventional 3) PROTINA—conventional
(§3) Two sets of soybeans reaching different growth stages at application time were prepared: one up to growth stage BBCH 11 (1-2 leaf stage) and the other up to BBCH 13 (3-4 leaf stage). Both soybean sets were treated at the same time (together with the weeds) but they were evaluated separately.
(§4) The applications were performed by post emergence treatments on the planted pots using a spray volume of 300 L water per hectare. The herbicides were applied alone and in combination as in the tables below.
(§5) The trial was conducted in the greenhouse ensuring optimal growing conditions.
(§6) The herbicidal effects were assessed 14 and 24 days following application by visual ratings comparing treated and untreated plants (0%=no effect to 100%=complete die-off).
(§7) The visual ratings are used to calculate interactions between treatments alone and combination treatments according to S. R. Colby, Weeds 15, pages 20 to 22 (1967).

GLXMA Merlin = assay: Post-emergence greenhouse treatment, visual rating of effect on conventional soybean MERLIN; assay type: in vivo; settings: for Effect (%): GLXMA Merlin, assessment 24 d
Experimental: as §1, §2, §3, §4, §5, §6, §7

SORHA = assay: Post-emergence greenhouse treatment, visual rating of herbicidal effect; assay type: in vivo, Sorghum halepense
Experimental: (§8) Seeds of grass and broadleaf weeds were sown in pots (diameter: 8 cm) filled with a sandy loam soil. For the herbicide post-emergent treatment, the weeds were grown under optimal conditions up to a growth stage of BBCH 11 (1-2 leaf stage) to 14 (3-4 leaf stage) depending on species. The following weeds were used:
as §4, §5, §6, §7

POLCO = assay: as above; assay type: in vivo, Polygonum convolvulus; settings: for Effect (%): POLCO
Experimental: as §8, §4, §5, §6, §7

BIDPI = assay: as above; assay type: in vivo, Bidens pilosa
Experimental: as §8, §4, §5, §6, §7

BRAPP = assay: as above; assay type: in vivo, Brachiaria platyphylla; settings: for Effect (%): BRAPP
Experimental: as §8, §4, §5, §6, §7

GLXMA Protina = assay: Post-emergence greenhouse treatment, visual rating of effect on conventional soybean PROTINA; assay type: in vivo; settings: for Effect (%): GLXMA Protina
Experimental: as §1, §2, §3, §4, §5, §6, §7

SETFA = assay: Post-emergence greenhouse treatment, visual rating of herbicidal effect; assay type: in vivo, Setaria faberi; settings: 1-2 leaf
Experimental: as §8, §4, §5, §6, §7

EPHHL = assay: as above; assay type: in vivo, Euphorbia heterophylla
Experimental: as §8, §4, §5, §6, §7

PHBPU = assay: as above; assay type: in vivo, Pharbitis purpurea
Experimental: as §8, §4, §5, §6, §7

SETVI = assay: as above; assay type: in vivo, Setaria viridis; settings: 1-2 leaf; for Effect (%): SETVI, assessment 24 d; for Effect: 24 d
Experimental: as §8, §4, §5, §6, §7

[1] = 1-2 leaf, assessment 24 d, (A1) alone 2.5 g a.i./ha
[2] = 1-2 leaf, assessment 24 d, (A1) alone 5 g a.i./ha
[3] = 1-2 leaf, assessment 24 d, (A1) alone 10 g a.i./ha
[4] = 3-4 leaf, assessment 14 d, (A1) alone 5 g a.i./ha
[5] = 1-2 leaf, 14 d, 20 g a.i./ha alone
[6] = 1-2 leaf, 24 d, 5 g a.i./ha alone
[7] = 1-2 leaf, 24 d, 10 g a.i./ha alone
[8] = 1-2 leaf, 24 d, 20 g a.i./ha alone
[9] = 3-4 leaf, 14 d, 5 g a.i./ha alone
[10] = 3-4 leaf, 14 d, 20 g a.i./ha alone

## COCCOCc1nc(C(F)(F)F)ccc1C(=O)C1=C(O)C2CCC(C2)C1=O (stereo not drawn) [(A6), 4-hydroxy-3-{2-[(2-methoxyethoxy)methyl]-6-(trifluoromethyl)-3-pyridylcarbonyl}bicyclo[3.2.1]oct-3-en-2-one]
GLXMA GM_W336; 1-2 leaf, 14 d, 5 g a.i./ha
  Effect: 5%
GLXMA GM_W336; 3-4 leaf, 14 d, 10 g a.i./ha
  Effect: 25%
GLXMA GM_W336; 3-4 leaf, 14 d, 20 g a.i./ha
  Effect: 30%
GLXMA GM_W336; 3-4 leaf, 24 d, 10 g a.i./ha
  Effect: 25%
GLXMA GM_W336; 3-4 leaf, 24 d, 20 g a.i./ha
  Effect: 30%
GLXMA Merlin; 3-4 leaf, 24 d, 10 g a.i./ha
  Effect: 50%
GLXMA Merlin; 3-4 leaf, 24 d, 20 g a.i./ha
  Effect: 50%
SORHA; 1-2 leaf, 14 d, 5 g a.i./ha
  Effect: 0%
POLCO; 3-4 leaf, 14 d, 10 g a.i./ha
  Effect: 50%
POLCO; 3-4 leaf, 14 d, 20 g a.i./ha
  Effect: 50%
POLCO; 3-4 leaf, 24 d, 10 g a.i./ha
  Effect: 35%
BIDPI; 3-4 leaf, 24 d, 20 g a.i./ha
  Effect: 30%
BRAPP; 3-4 leaf, 14 d, 10 g a.i./ha
  Effect: 15%
BRAPP; 3-4 leaf, 14 d, 20 g a.i./ha
  Effect: 25%
BRAPP; 3-4 leaf, 24 d, 20 g a.i./ha
  Effect: 15%
GLXMA Protina; 1-2 leaf, 14 d, 5 g a.i./ha
  Effect: 50%
GLXMA Protina; 3-4 leaf, 14 d, 10 g a.i./ha
  Effect: 45%
GLXMA Protina; 3-4 leaf, 14 d, 20 g a.i./ha
  Effect: 60%
SETFA; 14 d, 5 g a.i./ha
  Effect: 15%
EPHHL; 3-4 leaf, 24 d, 10 g a.i./ha
  Effect: 40%

## Cc1c(C(=O)c2cnn(C)c2O)ccc(S(C)(=O)=O)c1C1=NOCC1 [(A5), [3-(4,5-dihydro-1,2-oxazol-3-yl)-4-mesyl-o-tolyl](5-hydroxy-1-methylpyrazol-4-yl)methanone]
GLXMA GM_W336; 1-2 leaf, 24 d, 1.5 g a.i./ha
  Effect: 15%
GLXMA GM_W336; 3-4 leaf, 14 d, 3 g a.i./ha
  Effect: 30%
GLXMA GM_W336; 3-4 leaf, 24 d, 3 g a.i./ha
  Effect: 30%
GLXMA Merlin; 1-2 leaf, 24 d, 1.5 g a.i./ha
  Effect: 55%
SORHA; 3-4 leaf, 14 d, 3 g a.i./ha
  Effect: 15%
SORHA; 3-4 leaf, 24 d, 3 g a.i./ha
  Effect: 10%
BIDPI; 3-4 leaf, 14 d, 3 g a.i./ha
  Effect: 25%
BIDPI; 3-4 leaf, 24 d, 3 g a.i./ha
  Effect: 10%
GLXMA Protina; 3-4 leaf, 14 d, 3 g a.i./ha
  Effect: 50%
GLXMA Protina; 3-4 leaf, 24 d, 3 g a.i./ha
  Effect: 50%
SETFA; 24 d, 1.5 g a.i./ha
  Effect: 30%
PHBPU; 1-2 leaf, 24 d, 1.5 g a.i./ha
  Effect: 30%

## CS(=O)(=O)c1ccc(C(=O)C2C(=O)CCCC2=O)c(Cl)c1COCC(F)(F)F [(A1), 2-{2-chloro-4-mesyl-3-[(2,2,2-trifluoroethoxy)methyl]benzoyl}cyclohexane-1,3-dione]
GLXMA GM_W336; [1]
  Effect (%): 15%
GLXMA GM_W336; [2]
  Effect (%): 15%
GLXMA GM_W336; [3]
  Effect (%): 15%
GLXMA GM_W336; [4]
  Effect (%): 20%
GLXMA Merlin; 1-2 leaf, (A1) alone 5 g a.i./ha
  Effect (%): 75%
GLXMA Merlin; 1-2 leaf, (A1) alone 10 g a.i./ha
  Effect (%): 80%
SORHA; SORHA, 1-2 leaf, assessment 24 d, (A1) alone 5 g a.i./ha
  Effect (%): 20%
POLCO; [1]
  Effect (%): 0%
POLCO; [2]
  Effect (%): 0%
POLCO; [4]
  Effect (%): 10%
BIDPI; BIDPI, 3-4 leaf, assessment 14 d, (A1) alone 5 g a.i./ha
  Effect (%): 10%
BRAPP; [2]
  Effect (%): 10%
BRAPP; [3]
  Effect (%): 10%
BRAPP; [4]
  Effect (%): 25%
GLXMA Protina; [1]
  Effect (%): 65%
GLXMA Protina; [2]
  Effect (%): 75%
GLXMA Protina; [4]
  Effect (%): 55%
SETFA; SETFA, assessment 24 d, (A1) alone 2.5 g a.i./ha
  Effect (%): 0%
SETVI; (A1) alone 5 g a.i./ha
  Effect (%): 40%
SETVI; (A1) alone 10 g a.i./ha
  Effect (%): 40%

## CS(=O)(=O)c1cc(C(F)(F)F)ccc1C(=O)c1cnoc1C1CC1 [(A4), (5-cyclopropyl-1,2-oxazol-4-yl)(α,α,α-trifluoro-2-mesyl-p-tolyl)methanone]
GLXMA GM_W336; 1-2 leaf, 24 d, 20 g a.i./ha
  Effect: 10%
GLXMA GM_W336; 3-4 leaf, 14 d, 10 g a.i./ha
  Effect: 10%
SORHA; 1-2 leaf, 24 d, 20 g a.i./ha
  Effect: 40%
BRAPP; 3-4 leaf, 14 d, 10 g a.i./ha
  Effect: 15%
GLXMA Protina; 1-2 leaf, 24 d, 20 g a.i./ha
  Effect: 75%
GLXMA Protina; 3-4 leaf, 14 d, 10 g a.i./ha
  Effect: 35%
SETVI; 20 g a.i./ha
  Effect: 10%
PHBPU; 3-4 leaf, 14 d, 10 g a.i./ha
  Effect: 40%

## CS(=O)(=O)c1ccc(C(=O)C2C(=O)CCCC2=O)c([N+](=O)[O-])c1 [(A2), 2-(4-mesyl-2-nitrobenzoyl)cyclohexane-1,3-dione]
GLXMA GM_W336; [5]
  Effect: 20%
GLXMA GM_W336; [6]
  Effect: 15%
GLXMA GM_W336; [7]
  Effect: 15%
GLXMA GM_W336; [8]
  Effect: 25%
GLXMA GM_W336; [9]
  Effect: 15%
GLXMA GM_W336; [10]
  Effect: 25%
GLXMA Merlin; [9]
  Effect: 30%
SORHA; [6]
  Effect: 0%
SORHA; [9]
  Effect: 0%
SORHA; [10]
  Effect: 15%
POLCO; [7]
  Effect: 20%
POLCO; [9]
  Effect: 20%
POLCO; [10]
  Effect: 65%
BIDPI; [8]
  Effect: 20%
BRAPP; [5]
  Effect: 50%
BRAPP; [7]
  Effect: 25%
BRAPP; [8]
  Effect: 35%
GLXMA Protina; [5]
  Effect: 45%
GLXMA Protina; [6]
  Effect: 15%
GLXMA Protina; [7]
  Effect: 20%
GLXMA Protina; [8]
  Effect: 40%
GLXMA Protina; [10]
  Effect: 50%
EPHHL; [5]
  Effect: 30%
EPHHL; [7]
  Effect: 10%
EPHHL; [8]
  Effect: 10%
SETVI; 5 g a.i./ha alone
  Effect: 0%
PHBPU; [7]
  Effect: 75%
